Measured values: patent US12383545B1, “Treatment of migraine” (priority 2018, dated 2025)

System: patients with migraine (4 to 14 migraine/probable migraine headache days)
Experiment: Example 5: randomized double-blind placebo-controlled 12-week dose-regimen study (QD and BID), migraine/probable migraine (MPM) headache days efficacy
Type: in vivo, human
Details: mITT population
Description: In a multicenter, randomized, double-blind, placebo-controlled, parallel-group study designed to evaluate the efficacy, safety, and tolerability of multiple doses and doses regimens of atogepant for the prevention of migraine. The patients were randomized (2:1:2:1:2:1) to 1 of 6 treatment groups: placebo, atogepant 10 mg QD, atogepant 30 mg QD, atogepant 30 mg BID, atogepant 60 mg QD, and atogepant 60 mg BID.
This study consisted of a 4-week screening and baseline period and a 12-week double-blind treatment period, which was followed by a 4-week safety follow-up period. Total study duration is 20-weeks.
To be randomized, eligible patients had to be 18 to 75 years of age (inclusive), have a history of migraine with or without aura for at least 1 year consistent with a diagnosis according to the International Classification of Headache Disorders criteria, 3rd edition, beta version, have experienced 4 to 14 migraine/probable migraine headache days and <15 headache days in the 28-day baseline period. Patients who had clinically significant hematologic, endocrine, cardiovascular, cerebrovascular, pulmonary, renal, hepatic, gastrointestinal, or neurologic disease were excluded from the study.
A total of 834 patients were randomized to double-blind treatment (ITT population), and 825 patients took at least 1 dose of double-blind IP (safety population). […] The primary efficacy variable was the change from baseline in mean monthly migraine/probable migraine headache days across the 12-week treatment period. The secondary efficacy variables were the change from baseline in mean monthly headache days across the 12-week treatment period, proportion of patients with at least a 50% reduction in mean monthly migraine/probable migraine headache days across the 12-week treatment period, and the change from baseline in mean monthly acute medication use days across the 12-week treatment period.

[1] = Weeks 1-4, Atogepant 60 mg BID (N = 87)
[2] = Weeks 1-4, Atogepant 60 mg QD (N = 177)
[3] = Weeks 5-8, Atogepant 10 mg QD (N = 92)
[4] = Weeks 5-8, Atogepant 30 mg BID (N = 79)
[5] = Weeks 5-8, Atogepant 30 mg QD (N = 182)
[6] = Weeks 5-8, Atogepant 60 mg BID (N = 87)
[7] = Weeks 5-8, Atogepant 60 mg QD (N = 177)
[8] = Weeks 9-12, Atogepant 10 mg QD (N = 92)
[9] = Weeks 9-12, Atogepant 30 mg BID (N = 79)
[10] = Weeks 9-12, Atogepant 30 mg QD (N = 182)
[11] = Weeks 9-12, Atogepant 60 mg BID (N = 87)
[12] = Weeks 9-12, Atogepant 60 mg QD (N = 177)

For `C[C@@H]1[C@H](c2c(F)ccc(F)c2F)C[C@H](NC(=O)c2cnc3c(c2)C[C@@]2(C3)C(=O)Nc3ncccc32)C(=O)N1CC(F)(F)F` [atogepant], the “Non-responders (at least 100% reduction in mean monthly MPM headache days not met), (%)” value [1] was “(79.3) %”, the “Non-responders (at least 100% reduction in mean monthly MPM headache days not met), n” value [1] was 69 and the “Odds ratio vs. Placebo, at least 100% reduction in mean monthly MPM headache days” value [1] was 7.43. For the same compound, the “Responders (at least 100% reduction in mean monthly MPM headache days), (%)” value [1] was “(20.7) %”, the “Responders (at least 100% reduction in mean monthly MPM headache days), n” value [1] was 18 and the “Non-responders (at least 100% reduction in mean monthly MPM headache days not met), (%)” value [2] was “(85.2) %”. For the same compound, the “Non-responders (at least 100% reduction in mean monthly MPM headache days not met), n” value [2] was 150, the “Odds ratio vs. Placebo, at least 100% reduction in mean monthly MPM headache days” value [2] was 4.94 and the “Responders (at least 100% reduction in mean monthly MPM headache days), (%)” value [2] was “(14.8) %”. For the same compound, the “Responders (at least 100% reduction in mean monthly MPM headache days), n” value [2] was 26, the “Non-responders (at least 100% reduction in mean monthly MPM headache days not met), (%)” value [3] was “(79.1) %” and the “Non-responders (at least 100% reduction in mean monthly MPM headache days not met), n” value [3] was 68. For the same compound, the “Odds ratio vs. Placebo, at least 100% reduction in mean monthly MPM headache days” value [3] was 2.34, the “Responders (at least 100% reduction in mean monthly MPM headache days), (%)” value [3] was “(20.9) %” and the “Responders (at least 100% reduction in mean monthly MPM headache days), n” value [3] was 18. For the same compound, the “Non-responders (at least 100% reduction in mean monthly MPM headache days not met), (%)” value [4] was “(80.3) %”, the “Non-responders (at least 100% reduction in mean monthly MPM headache days not met), n” value [4] was 57 and the “Odds ratio vs. Placebo, at least 100% reduction in mean monthly MPM headache days” value [4] was 2.26. For the same compound, the “Responders (at least 100% reduction in mean monthly MPM headache days), (%)” value [4] was “(19.7) %”, the “Responders (at least 100% reduction in mean monthly MPM headache days), n” value [4] was 14 and the “Non-responders (at least 100% reduction in mean monthly MPM headache days not met), (%)” value [5] was “(73.3) %”. For the same compound, the “Non-responders (at least 100% reduction in mean monthly MPM headache days not met), n” value [5] was 121, the “Odds ratio vs. Placebo, at least 100% reduction in mean monthly MPM headache days” value [5] was 3.26 and the “Responders (at least 100% reduction in mean monthly MPM headache days), (%)” value [5] was “(26.7) %”. The “Responders (at least 100% reduction in mean monthly MPM headache days), n” value [5] was 44, the “Non-responders (at least 100% reduction in mean monthly MPM headache days not met), (%)” value [6] was “(73.8) %” and the “Non-responders (at least 100% reduction in mean monthly MPM headache days not met), n” value [6] was 59. The “Odds ratio vs. Placebo, at least 100% reduction in mean monthly MPM headache days” value [6] was 3.25, the “Responders (at least 100% reduction in mean monthly MPM headache days), (%)” value [6] was “(26.3) %” and the “Responders (at least 100% reduction in mean monthly MPM headache days), n” value [6] was 21. The “Non-responders (at least 100% reduction in mean monthly MPM headache days not met), (%)” value [7] was “(79.9) %”, the “Non-responders (at least 100% reduction in mean monthly MPM headache days not met), n” value [7] was 135 and the “Odds ratio vs. Placebo, at least 100% reduction in mean monthly MPM headache days” value [7] was 2.31. The “Responders (at least 100% reduction in mean monthly MPM headache days), (%)” value [7] was “(20.1) %”, the “Responders (at least 100% reduction in mean monthly MPM headache days), n” value [7] was 34 and the “Non-responders (at least 100% reduction in mean monthly MPM headache days not met), (%)” value [8] was “(79.8) %”. For the same compound, the “Non-responders (at least 100% reduction in mean monthly MPM headache days not met), n” value [8] was 67, the “Odds ratio vs. Placebo, at least 100% reduction in mean monthly MPM headache days” value [8] was 1.43 and the “Responders (at least 100% reduction in mean monthly MPM headache days), (%)” value [8] was “(20.02) %”. The “Responders (at least 100% reduction in mean monthly MPM headache days), n” value [8] was 17, the “Non-responders (at least 100% reduction in mean monthly MPM headache days not met), (%)” value [9] was “(71.0) %” and the “Non-responders (at least 100% reduction in mean monthly MPM headache days not met), n” value [9] was 49. The “Odds ratio vs. Placebo, at least 100% reduction in mean monthly MPM headache days” value [9] was 2.42, the “Responders (at least 100% reduction in mean monthly MPM headache days), (%)” value [9] was “(29.0) %” and the “Responders (at least 100% reduction in mean monthly MPM headache days), n” value [9] was 20. For the same compound, the “Non-responders (at least 100% reduction in mean monthly MPM headache days not met), (%)” value [10] was “(77.0) %”, the “Non-responders (at least 100% reduction in mean monthly MPM headache days not met), n” value [10] was 117 and the “Odds ratio vs. Placebo, at least 100% reduction in mean monthly MPM headache days” value [10] was 1.72. The “Responders (at least 100% reduction in mean monthly MPM headache days), (%)” value [10] was “(23.0) %”, the “Responders (at least 100% reduction in mean monthly MPM headache days), n” value [10] was 35 and the “Non-responders (at least 100% reduction in mean monthly MPM headache days not met), (%)” value [11] was “(67.6) %”. For the same compound, the “Non-responders (at least 100% reduction in mean monthly MPM headache days not met), n” value [11] was 48, the “Odds ratio vs. Placebo, at least 100% reduction in mean monthly MPM headache days” value [11] was 2.59 and the “Responders (at least 100% reduction in mean monthly MPM headache days), (%)” value [11] was “(32.4) %”. For the same compound, the “Responders (at least 100% reduction in mean monthly MPM headache days), n” value [11] was 23, the “Non-responders (at least 100% reduction in mean monthly MPM headache days not met), (%)” value [12] was “(73.2) %” and the “Non-responders (at least 100% reduction in mean monthly MPM headache days not met), n” value [12] was 120. The “Odds ratio vs. Placebo, at least 100% reduction in mean monthly MPM headache days” value [12] was 2.07, the “Responders (at least 100% reduction in mean monthly MPM headache days), (%)” value [12] was “(26.8) %” and the “Responders (at least 100% reduction in mean monthly MPM headache days), n” value [12] was 44.
